Structures are written as SMILES.

The test system of this test is THP-1 CD14. Description: THP-1 CD14 Screening Assay. Type of test: cell-based. Particulars: Homo sapiens, THP-1, 72 h, THP-1 cells treated with PMA and compound (5-point 10-fold dilution), human CD14 ELISA on media. The procedure:
THP-1 CD14 Screening Assay Protocol:
5×10^4 THP-1 cells were plated per well in a tissue culture-treated 96-well plate. At the time of plating, cells were treated with a final concentration of […] PMA and 0.04% DMSO vehicle, concominant with compounds in a 5-point 10-fold dilution per compound. Cells were treated with PMA and DMSO as a control for differentiation without compound treatment, and with only DMSO as a control for no differentiation and no compound treatment. 500 nM IACS-71432 was added as a control compound across all assay plates.
After incubation at 37° C./5% CO2 for 72 hr, media was collected from the cells and the screening assay was performed using the commercially-available human CD14 SimpleStep ELISA kit from Abcam, according to the following protocol: • 1) ELISA kits were taken out to equilibrate to rt. • 2) Following the protocol listed in the kit, standards were prepared as 1:1 dilutions from 2 ng/ml. • 3) Following the protocol listed in the kit, antibody cocktail was prepared (the volume is contingent on the number of wells required). • 4) 50 μl of standards were added to the appropriate wells, thoroughly mizing the standards before adding to each well. • 5) 25 μl of Sample Diluent (from kit) was added to all sample wells. • 6) Cell plates were centrifuged for 5 min at 300 rcf, with slow acceleration and slow deceleration. • 7) 25 μl of media from cell plates was transferred to assay plates containing standards. • 8) 50 μl of antibody cocktail was added to all of the wells, standards and samples. • 9) Assay plates were sealed tightly and incubated on the plate shaker at 400 rpm for 1 hr at rt. • 10) Wash buffer was prepared following the protocol listed in the kit. • 11) After the hour incubation, assay plates were washed 5 times using 200 μl wash buffer per well per wash. • 12) 100 μl of TMB substrate was added to each well in the dark and incubated on the shaker for 3-4.min, at which point color development was monitored to ensure a robust signal for detection but to avoid oversaturation of signal, for no longer than 10 min. • 13) The absorbance at 607 nm was read on a Perkin Elmer Envision plate reader. • 14) Data was processed using Microsoft Excel and GraphPad Prism.
Background: ELISA stands for enzyme-linked immunosorbent assay.
The compound `O=S(=O)(NCc1ccncc1)c1ccc(-c2ccccc2)cc1` [Example 37, N-(pyridin-4-ylmethyl)-[1,1′-biphenyl]-4-sulfonamide] came in with an IC50 of less than 5 nM.

`O=S(=O)(NCc1ccncc1)c1ccc(-c2ccncc2)cc1` [Example 38, 4-(pyridin-4-yl)-N-(pyridin-4-ylmethyl)benzenesulfonamide] registered an IC50 of 5 to 100 nM.

`Cc1cnccc1-c1ccc(S(=O)(=O)NCc2ccncc2)cc1` [Example 39, 4-(3-methylpyridin-4-yl)-N-(pyridin-4-ylmethyl)-benzenesulfonamide] yielded a half-maximal inhibitory concentration (IC50) of less than 5 nM.

Compound `Cc1cc(-c2ccc(S(=O)(=O)NCc3ccncc3)cc2)ccn1` [Example 40, 4-(2-methylpyridin-4-yl)-N-(pyridin-4-ylmethyl)-benzenesulfonamide] showed an IC50 of less than 5 nM.

Regarding `Cc1ccnc(-c2ccc(S(=O)(=O)NCc3ccncc3)cc2)c1` [Example 41, 4-(4-methylpyridin-2-yl)-N-(pyridin-4-ylmethyl)-benzenesulfonamide], the IC50 is less than 5 nM.

Compound `Cc1ccc(-c2ccc(S(=O)(=O)NCc3ccncc3)cc2)nc1` [Example 42, 4-(5-methylpyridin-2-yl)-N-(pyridin-4-ylmethyl)-benzenesulfonamide] registered an IC50 of less than 5 nM.

Compound `O=S(=O)(NCc1ccncc1)c1ccc(-c2ncccc2Cl)cc1` [Example 43, 4-(3-chloropyridin-2-yl)-N-(pyridin-4-ylmethyl)-benzenesulfonamide] showed an IC50 of less than 5 nM.

`Cn1ncc2cc(-c3ccc(S(=O)(=O)NCc4ccncc4)cc3)ccc21` [Example 44, 4-(1-methyl-1H-indazol-5-yl)-N-(pyridin-4-ylmethyl)-benzenesulfonamide] yielded an IC50 of less than 5 nM.

`O=S(=O)(NCc1ccncc1)c1ccc(-c2ccc3ncoc3c2)cc1` [Example 45, 4-(benzo[d]oxazol-6-yl)-N-(pyridin-4-ylmethyl)-benzenesulfonamide] yielded an IC50 of less than 5 nM.

As to `O=S(=O)(NCc1ccncc1)c1ccc(-c2ccc3ncsc3c2)cc1` [Example 46, 4-(benzo[d]thiazol-6-yl)-N-(pyridin-4-ylmethyl)-benzenesulfonamide], the IC50 is less than 5 nM.

The compound `Cc1nc2cc(-c3ccc(S(=O)(=O)NCc4ccncc4)cc3)ccc2o1` [Example 47, 4-(2-methyl-benzo[d]oxazol-5-yl)-N-(pyridin-4-ylmethyl)-benzenesulfonamide] displayed an IC50 of less than 5 nM.

For the compound `O=S(=O)(NCc1ccncc1)c1ccc(-c2ccc3ocnc3c2)cc1` [Example 48, 4-(1,3-benzoxazol-5-yl)-N-[(pyridin-4-yl)methyl]benzene-1-sulfonamide], the IC50 was less than 5 nM.

Regarding `O=c1[nH]ccc2cc(-c3ccc(S(=O)(=O)NCc4ccncc4)cc3)ccc12` [Example 50, 4-(1-oxo-1,2-dihydro-isoquinolin-6-yl)-N-(pyridin-4-ylmethyl)-benzenesulfonamide], the 50% inhibitory concentration (IC50) lay within 100 to 500 nM.

The compound `O=S(=O)(NCc1ccncc1)c1ccc(-c2ccc3ccoc3c2)cc1` [Example 51, 4-(benzofuran-6-yl)-N-(pyridin-4-ylmethyl)-benzenesulfonamide] showed an IC50 of less than 5 nM.

`O=S(=O)(NCc1ccncc1)c1ccc(-c2ccc3cccnc3c2)cc1` [Example 52, N-(pyridin-4-ylmethyl)-4-(quinolin-7-yl)benzenesulfonamide] showed an IC50 of less than 5 nM.

Regarding `O=S(=O)(NCc1ccncc1)c1ccc(-c2ccc3c(c2)OCO3)cc1` [Example 53, 4-(benzo[d][1,3]dioxol-5-yl)-N-(pyridin-4-ylmethyl)-benzenesulfonamide], the IC50 is less than 5 nM.

`O=S(=O)(NCc1ccncc1)c1ccc(-c2ccc3ncnc(O)c3c2)cc1` [Example 54, 4-(4-hydroxyquinazolin-6-yl)-N-(pyridin-4-ylmethyl)-benzenesulfonamide] registered an IC50 of 100 to 500 nM.

In the case of `O=S(=O)(NCc1ccncc1)c1ccc(-c2ccc3c(c2)OCCO3)cc1` [Example 55, 4-(2,3-dihydrobenzo[b]-[1,4]dioxin-6-yl)-N-(pyridin-4-ylmethyl)-benzenesulfonamide], the IC50 is less than 5 nM.

In the case of `O=C1NCCc2ccc(-c3ccc(S(=O)(=O)NCc4ccncc4)cc3)cc21` [Example 56, 4-(1-oxo-1,2,3,4-tetrahydroisoquinolin-7-yl)-N-(pyridin-4-ylmethyl)-benzenesulfonamide], the IC50 lay within 5 to 100 nM.

Compound `O=C1NCc2ccc(-c3ccc(S(=O)(=O)NCc4ccncc4)cc3)cc21` [Example 57, 4-(3-oxoisoindolin-5-yl)-N-(pyridin-4-ylmethyl)-benzenesulfonamide] yielded an IC50 of 5 to 100 nM.

In turn, `O=S(=O)(NCc1ccncc1)c1ccc(-c2ccc3cc[nH]c3c2)cc1` [Example 58, 4-(1H-indol-6-yl)-N-(pyridin-4-ylmethyl)-benzenesulfonamide] displayed a half-inhibitory concentration (IC50) of less than 5 nM.

As for `Cc1n[nH]c2cc(-c3ccc(S(=O)(=O)NCc4ccncc4)cc3)ccc12` [Example 59, 4-(3-methyl-1H-indazol-6-yl)-N-(pyridin-4-ylmethyl)-benzenesulfonamide], the IC50 was less than 5 nM.

Regarding `O=c1[nH]c2cc(-c3ccc(S(=O)(=O)NCc4ccncc4)cc3)ccc2o1` [Example 61, 4-(2-oxo-2,3-dihydro-benzo[d]oxazol-5-yl)-N-(pyridin-4-ylmethyl)-benzenesulfonamide], the IC50 is 5 to 100 nM.

Compound `O=c1[nH]c2ccc(-c3ccc(S(=O)(=O)NCc4ccncc4)cc3)cc2o1` [Example 62, 4-(2-oxo-2,3-dihydro-benzo[d]oxazol-6-yl)-N-(pyridin-4-ylmethyl)-benzenesulfonamide] came in with a half-inhibitory concentration (IC50) of 100 to 500 nM.

Turning to `Cn1ncc2c(NS(=O)(=O)c3ccc(C4CCCCC4)cc3)cccc21` [Example 63, 4-cyclohexyl-N-(1-methyl-1H-indazol-4-yl)benzenesulfonamide], the IC50 is less than 5 nM.

As usually defined, the IC50 is the concentration needed to halve the response being measured.

(Values after US20240043384A1, “INHIBITORS OF PU.1 FOR THE TREATMENT OF DISEASE” (Board of Regents, The University of Texas System, priority 2021, published 2024).)
